Measured values reported in PMC8972196, “A Set of Experimentally Validated Decoys for the Human CC Chemokine Receptor 7 (CCR7) Obtained by Virtual Screening” (Frontiers in Pharmacology, 2022).
Where two headings read alike, the source gives them in different places.

Biological target: T1, human CCR7 (Homo sapiens, UniProt P32248)
T1 construct: expressed in transfected cells
T1 sequence (P32248 25-378): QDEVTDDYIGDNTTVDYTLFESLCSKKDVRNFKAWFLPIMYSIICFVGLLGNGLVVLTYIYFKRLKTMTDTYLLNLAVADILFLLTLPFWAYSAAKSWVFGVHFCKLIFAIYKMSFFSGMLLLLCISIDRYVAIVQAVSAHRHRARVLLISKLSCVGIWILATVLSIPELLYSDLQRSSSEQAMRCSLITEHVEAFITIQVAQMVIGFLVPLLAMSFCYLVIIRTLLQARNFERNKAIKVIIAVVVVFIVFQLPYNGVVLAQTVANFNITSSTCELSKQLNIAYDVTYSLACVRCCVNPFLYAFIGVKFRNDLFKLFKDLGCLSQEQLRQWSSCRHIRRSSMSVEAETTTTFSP
Experiment: CCL19-induced calcium mobilization assay, U87.CD4 cells expressing CCR7
Type: cell-based
Method in brief: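 U87.CD4 cells stably expressing human CCR7, CXCR2 or CCR5 were seeded at 20,000 cells/well and incubated overnight at 37°C and 5% CO2. Cells were then incubated for 45 min at room temperature in the dark before calcium responses were recorded. CCR7 responses were induced with CCL19 and CXCR2 responses with CXCL8.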

[1] = CCL19-induced calcium signaling, read-out: IC50 [μM] block CCL19 induced calcium signaling
[2] = classification of tested compounds as decoy or active
[3] = CCL19 induced calcium signaling, read-out: IC50 [μM] block CCL19 induced calcium signaling
[4] = classification as decoy or active on CCR7

| SMILES | IC50 [1] [µM] | Decoy – 0 Active – 1 [2] | IC50 [3] [µM] | Decoy – 0 Active – 1 [4] | IC50 [µM] |
| --- | --- | --- | --- | --- | --- |
| CC(C)(C)c1ccc(CN(Cc2ccccc2)Cc2nc(C(=O)N3CCOCC3)co2)cc1 [C243, CC(C)(C)c1ccc(cc1)C[NH+](Cc2ccccc2)Cc3nc(co3)C(=O)N4CCOCC4] |  |  | > 50 | 0 |  |
| C[C@@H](CNC(=O)Nc1ccnc(C(=O)N(C)C)c1)c1cccs1 [C119, C[C@@H](CNC(=O)Nc1ccnc(C(=O)N(C)C)c1)c1cccs1] | > 50 | 0 |  |  |  |
| O=S1(=O)N=C(NCCN2CCCC2)C(NCCN2CCCC2)=N1 [C150, O=S1(=O)N=C(NCC[NH+]2CCCC2)C(NCC[NH+]2CCCC2)=N1] | > 50 | 0 |  |  |  |
| CN(C)[C@@H]1CCCC[C@H]1NC(=S)Nc1cc(C(F)(F)F)cc(C(F)(F)F)c1 [C039, S=C(N[C@H]1[C@H](N(C)C)CCCC1)NC2=CC(C(F)(F)F)=CC(C(F)(F)F)=C2] | > 50 | 0 |  |  |  |
| CC1(C)CC(NC(=O)c2cc(O)c3ccccc3c2)C(C)(C)O1 (centres unmarked) [C178, CC1(C)CC(NC(=O)c2cc(O)c3ccccc3c2)C(C)(C)O1] |  |  | > 50 | 0 |  |
| FC(F)(F)c1ccccc1NC(=S)Nc1ccc(OCc2ccccc2)cc1 [C035, FC(F)(F)c1ccccc1NC(=S)Nc1ccc(OCc2ccccc2)cc1] | > 30 | 0 |  |  |  |
| CCN(CC)C(CNC(=O)c1ccc(C)[nH]c1=O)Cc1ccccc1 (centres unmarked) [C283, CCN(CC)C(CNC(=O)c1ccc(C)[nH]c1=O)Cc1ccccc1] |  |  |  | 0 | > 50 |
| CNC(=O)[C@H](NC1=NS(=O)(=O)c2ccccc21)C(C)C [C157, CNC(=O)[C@H](NC1=NS(=O)(=O)c2ccccc21)C(C)C] | > 50 | 0 |  |  |  |
| CC[C@@H](NC(=O)c1cc(-c2cccc(OC)c2)n[nH]1)c1nc(C)c(C)s1 [C159, CC[C@@H](NC(=O)c1cc(-c2cccc(OC)c2)n[nH]1)c1nc(C)c(C)s1] |  |  | > 50 | 0 |  |
| C/N=C(\NCCC(=O)N(C)C)N[C@H](C)c1ccc(C)o1 [C140, C/[NH+]=C(\NCCC(=O)N(C)C)N[C@H](C)c1ccc(C)o1] | > 50 | 0 |  |  |  |
| Cc1ccc(C(C)NC(=O)C(=O)Nc2cc(C(=O)N(C)C)ccc2C)o1 (centres unmarked) [C058, Cc1ccc(C(C)NC(=O)C(=O)Nc2cc(C(=O)N(C)C)ccc2C)o1] | > 10 | 0 |  |  |  |
| CC(=O)N1CCC2(CC1)CC(C(=O)O)N(C(=O)c1ccc(C)c3ccccc13)C2 (centres unmarked) [C212, CC(=O)N1CCC2(CC1)CC(C(=O)[O-])N(C(=O)c1ccc(C)c3ccccc13)C2] |  |  | > 50 | 0 |  |
| CC1CCc2c(F)cccc2C1NC(=O)c1n[nH]c(=O)[nH]1 (centres unmarked) [C222, CC1CCc2c(F)cccc2C1NC(=O)c1n[nH]c(=O)[nH]1] |  |  | > 50 | 0 |  |
| N=C(Nc1ccc(Br)cc1)C(N)=Nc1ccc(Br)cc1 [C077, NC(=[NH+]c1ccc(Br)cc1)C(=[NH2+])Nc1ccc(Br)cc1] | > 10 | 0 |  |  |  |
| NC(=S)Nc1n[nH]c2ccccc12 [C049, S=C(NC1=NNC2=C1C=CC=C2)N] | > 30 | 0 |  |  |  |
| Cc1ccc(CNC(=O)c2nnc(-c3ccc(S(=O)(=O)N(C)C)cc3)o2)o1 [C088, Cc1ccc(CNC(=O)c2nnc(-c3ccc(S(=O)(=O)N(C)C)cc3)o2)o1] | > 50 | 0 |  |  |  |
| COc1ccc(N2CCN(c3c(NCc4cccc(Cl)c4)c(=O)c3=O)CC2)cc1 [C002, COc1ccc(N2CCN(c3c(NCc4cccc(Cl)c4)c(=O)c3=O)CC2)cc1] | > 50 | 0 |  |  |  |
| CC(O)CNc1c(NCc2ccc3c(c2)OCO3)c(=O)c1=O (centres unmarked) [C001, CC(O)CNc1c(NCc2ccc3c(c2)OCO3)c(=O)c1=O] | > 50 | 0 |  |  |  |
| Cc1cccnc1C1(CNc2cc(N3CCC[C@H](CO)C3)ncn2)CC1 [C080, Cc1cccnc1C1(CNc2cc(N3CCC[C@H](CO)C3)ncn2)CC1] | > 50 | 0 |  |  |  |
| O=C1NC[C@H](C(=O)N(Cc2ccco2)C2CC2)N1 [C151, O=C1NC[C@H](C(=O)N(Cc2ccco2)C2CC2)N1] | > 50 | 0 |  |  |  |

More lines, main results first:

| IC50 [1] [µM] | Decoy – 0 Active – 1 [2] | IC50 [3] [µM] | Decoy – 0 Active – 1 [4] | SMILES | IC50 [µM] |
| --- | --- | --- | --- | --- | --- |
| > 50 | 0 |  |  | CC(C)[C@@H]1OCCC[C@@H]1Nc1cc(N2CC[C@H](OCc3ccccn3)C2)ncn1 [C084, CC(C)[C@@H]1OCCC[C@@H]1Nc1cc(N2CC[C@H](OCc3ccccn3)C2)ncn1] |  |
| > 10 | 0 |  |  | N=C(Nc1ccccc1)C(N)=Nc1ccccc1 [C068, NC(=[NH+]c1ccccc1)C(=[NH2+])Nc1ccccc1] |  |
|  |  | > 50 | 0 | COc1ccc(S(=O)(=O)Nc2ccccc2C(=O)N2CCOCC2)cc1C [C260, Cc1cc(ccc1OC)S(=O)(=O)Nc2ccccc2C(=O)N3CCOCC3] |  |
|  |  | > 50 | 0 | O=C(NCC1(c2cccc(F)c2)CCCCC1)c1n[nH]c(=O)[nH]1 [C195, O=C(NCC1(c2cccc(F)c2)CCCCC1)c1n[nH]c(=O)[nH]1] |  |
|  |  | > 50 | 0 | Cn1cc(C2CN(S(=O)(=O)c3ccc4c(c3)CCCC4)CC2CO)cn1 (centres unmarked) [C269, Cn1cc(cn1)C2CN(CC2CO)S(=O)(=O)c3ccc4c(c3)CCCC4] |  |
|  |  | > 50 | 0 | O=C1CC(C(=O)N2CCCC2c2cccs2)CN1c1cccc2ccccc12 (centres unmarked) [C230, O=C1CC(C(=O)N2CCCC2c2cccs2)CN1c1cccc2ccccc12] |  |
|  |  | > 50 | 0 | O=C1CC(NCc2nc3ccccc3[nH]2)CN1Cc1ccccc1C(F)(F)F (centres unmarked) [C277, O=C1CC(NCc2nc3ccccc3[nH]2)CN1Cc1ccccc1C(F)(F)F] |  |
| > 50 | 0 |  |  | CCOC(=O)c1c(C)c(CCC(=O)N[C@H](C)c2ccccc2)c(C)n1C [C082, CCOC(=O)c1c(C)c(CCC(=O)N[C@H](C)c2ccccc2)c(C)n1C] |  |
| > 50 | 0 |  |  | Cc1ccc(CNC(=O)c2nnc(-c3ccc(S(=O)(=O)N4CCCC4)cc3)o2)o1 [C091, Cc1ccc(CNC(=O)c2nnc(-c3ccc(S(=O)(=O)N4CCCC4)cc3)o2)o1] |  |
| > 10 | 0 |  |  | CN(C)C(=O)c1cccc(NCC(=O)N(C)C2CCCCC2)c1 [C075, CN(C)C(=O)c1cccc(NCC(=O)N(C)C2CCCCC2)c1] |  |
|  |  | > 50 | 0 | Cc1ccc(C(=O)NC2CCC(=O)NC2C)cc1N1CCOCC1 (centres unmarked) [C211, Cc1ccc(C(=O)NC2CCC(=O)NC2C)cc1N1CCOCC1] |  |
|  |  | > 50 | 0 | Cc1nc[nH]c1C(=O)NC1CC(=O)N(Cc2cccc3ccccc23)C1 (centres unmarked) [C276, Cc1nc[nH]c1C(=O)NC1CC(=O)N(Cc2cccc3ccccc23)C1] |  |
| > 10 | 0 |  |  | NC(=O)c1cc(NCC(=O)NCc2ccco2)ccc1Cl [C067, NC(=O)c1cc(NCC(=O)NCc2ccco2)ccc1Cl] |  |
|  |  | > 50 | 0 | COc1cccc(N2CC(NC(=O)c3cccc4ccccc34)CC2=O)c1 (centres unmarked) [C188, COc1cccc(N2CC(NC(=O)c3cccc4ccccc34)CC2=O)c1] |  |
| > 50 | 0 |  |  | Cc1ocnc1C(=O)N[C@@H]1CC(=O)N(Cc2ccc(F)cc2)C1 [C139, Cc1ocnc1C(=O)N[C@@H]1CC(=O)N(Cc2ccc(F)cc2)C1] |  |
|  |  | > 50 | 0 | O=C(NCc1cccnc1)c1ccccc1NS(=O)(=O)c1ccc2c(c1)OCCO2 [C239, c1ccc(c(c1)C(=O)NCc2cccnc2)NS(=O)(=O)c3ccc4c(c3)OCCO4] |  |
| > 50 | 0 |  |  | CS(=O)(=O)c1ccc(-c2cccc(NC(=O)[C@H]3CCCO3)c2)nn1 [C101, CS(=O)(=O)c1ccc(-c2cccc(NC(=O)[C@H]3CCCO3)c2)nn1] |  |
|  |  | > 50 | 0 | O=C1CCCc2[nH]c(=O)c(C(=O)NC3CCc4cc(F)ccc43)cc21 (centres unmarked) [C286, O=C1CCCc2[nH]c(=O)c(C(=O)NC3CCc4cc(F)ccc43)cc21] |  |
| > 10 | 0 |  |  | CN(C)C(=O)c1cccc(NCC(=O)NCC2(c3ccccc3)CCC2)c1 [C052, CN(C)C(=O)c1cccc(NCC(=O)NCC2(c3ccccc3)CCC2)c1] |  |
|  |  | > 50 | 0 | O=C(NC1CCC(C(=O)N2CCCCC2)C1)NC1C2Cc3cc(F)ccc3C21 (centres unmarked) [C227, O=C(NC1CCC(C(=O)N2CCCCC2)C1)NC1C2Cc3cc(F)ccc3C21] |  |
| > 50 | 0 |  |  | CNC(=O)c1cccc(NC(=O)NCC(C)(C)c2cccs2)c1C [C126, CNC(=O)c1cccc(NC(=O)NCC(C)(C)c2cccs2)c1C] |  |
|  |  | > 50 | 0 | CC(=O)N1CCCCC1CC(=O)NC1(C)CCc2ccccc2C1 (centres unmarked) [C193, CC(=O)N1CCCCC1CC(=O)NC1(C)CCc2ccccc2C1] |  |
| > 50 | 0 |  |  | CNC(=O)c1cccc(NC(=O)c2cn(Cc3ccccn3)nn2)c1C [C100, CNC(=O)c1cccc(NC(=O)c2cn(Cc3ccccn3)nn2)c1C] |  |
| > 50 | 0 |  |  | O=C(CNc1c(N2CCN(c3ccc(Cl)cc3)CC2)c(=O)c1=O)NCc1ccco1 [C008, O=C(CNc1c(N2CCN(c3ccc(Cl)cc3)CC2)c(=O)c1=O)NCc1ccco1] |  |
|  |  | > 50 | 0 | Cc1ccn(C)c(=O)c1NC(=O)NC1CCCc2ccc(Cl)cc21 (centres unmarked) [C196, Cc1ccn(C)c(=O)c1NC(=O)NC1CCCc2ccc(Cl)cc21] |  |
| > 30 | 0 |  |  | OCc1ccccc1NC(=S)NCc1ccccc1 [C038, OCc1ccccc1NC(=S)NCc1ccccc1] |  |
